# Measurements from patent US11903981B2, “Use of Anaerofustis stercorihominis in preventing and/or treating metabolic diseases” (priority 2018, dated 2024).
# Marks after values point to notes of the source that are not given here.
# Legend:
# Assay type in all cases: in vivo
# [1] = system: obesity mice model (C57BL/6 male mice, high-fat feed); assay: Obesity animal model (high-fat feed), body weight; conditions: bacterial solution 1×10^8 cfu/ml by gavage; for Weight of mice, Week 9: Week 9, *P<0.05 relative to model group
# Procedure: The obesity animal model is constructed by using C57BL/6 male mice (purchased from Guangdong Medical Experimental Animal Center) at 8 weeks old and 20±2 g of body weight, which is housed in a specific pathogen free (SPF) environment and access to food and water ad lib. The mice are randomly divided into 5 groups, with 10 mice in each group.
# Bacterial agent group 1: mice were fed with high-fat feed every day, in which the AM25-6 bacterial solution (1×10^8 cfu/ml) was administered by gavage for 9 weeks after 4 weeks of feeding high-fat feed;
# Bacterial agent group 2: mice were fed with high-fat feed every day, in which the DSM 17244 bacterial solution (1×10^8 cfu/ml) was administered by gavage for 9 weeks after 4 weeks of feeding high-fat feed;
# Bacterial agent group 3: mice were fed with high-fat feed every day, in which the DSM 28733 bacterial solution (1×10^8 cfu/ml) was administered by gavage for 9 weeks after 4 weeks of feeding high-fat feed;
# Obesity model group: mice were fed with high-fat feed every day, in which the culture medium in a same amount was administered by gavage for 9 weeks after 4 weeks of feeding high-fat feed.
# During the experimental period, experimental data such as the body weight, body condition and food intake amount of mice were recorded every week. After the completion of experiment, the mice were sacrificed, and the fat weight was recorded and the serum was collected for detecting blood lipids by using the Elisa kit.
# [2] = system: T2D mice model (C57bL/6 mice); assay: T2D animal model, oral glucose tolerance test (OGTT); conditions: for Blood glucose in OGTT, 0 minute: 0 minute after glucose by gavage; for Blood glucose in OGTT, 30 minutes: 30 minutes after glucose by gavage; for Blood glucose in OGTT, 60 minutes: 60 minutes after glucose by gavage; for Blood glucose in OGTT, 90 minutes: 90 minutes after glucose by gavage; for Blood glucose in OGTT, 120 minutes: 120 minutes after glucose by gavage
# Procedure: (§1) The T2D animal model is constructed by using C57bL/6 mice (purchased from Guangdong Medical Experimental Animal Center) at 8 weeks old and 20±2 g of body weight. The mice were housed in a specific pathogen free (SPF) environment and adaptively fed for 1 week, followed by grouping and modeling. The T2D animal model is induced by injection of streptozotocin (STZ) along with feeding high-fat feed, and the mice having fasting blood glucose (FBG) reaching to 10 mM/L can be used as a T2D mice model. Fifty mice selected for experiments are randomly divided into 5 groups.
# (§2) The experiment was carried out based on the different groups. After the construction of T2D mice model (i.e., FBG>10), the treatment was started and lasted for 2 months. The food intake amount and body weight of mice were recorded daily. Blood of mice was collected from the tail vein every week for detection of fasting blood glucose. The oral glucose tolerance test (OGTT) of mice was measured at week 4 of treatment and at the end of the experiment.
# The results of oral glucose tolerance test (OGTT) for mice shown in Table 8 indicate that the blood glucose of mice reaches the highest level (i.e., 17.8-23.1 mmol/L) at 30 minutes upon administration of glucose by gavage. […] From the perspective of overall glucose tolerance process, it can be seen that Anaerofustis stercorihominis can effectively ameliorate glucose intolerance in diabetic mice.
# [3] = system: C57bL/6 mice fed with high-fat feed; assay: Hyperlipidemia animal model (high-fat feed), blood lipids and blood viscosity; conditions: for blood viscosity: carotid artery blood, hemorheological examination; for HDLC (high-density lipoprotein) / LDLC (low-density lipoprotein) / TC (total cholesterol) / TG (triglyceride): serum, bacterial solution 2 ml 1×10^9 cfu/ml daily or tablets 0.6 g/kg
# Procedure: Sixty C57bL/6 mice (purchased from Guangdong Medical Experimental Animal Center) at 6 weeks old were used in this experiment, which were normally fed in a Specific pathogen Free (SPF) environment. The mice were adaptively fed for 1 week and then randomly divided into 6 groups, with 10 mice in each group. The animal model is constructed along with intervention.
# Bacterial agent group 1: the mice were fed with high-fat feed and 2 ml of AM25-6 bacterial solution (1×10^9 cfu/ml) daily;
# Bacterial agent group 2: the mice were fed with high-fat feed and 2 ml of DSM 17244 bacterial solution (1×10^9 cfu/ml) daily;
# Bacterial agent group 3: the mice were fed with high-fat feed and 2 ml of DSM 28733 bacterial solution (1×10^9 cfu/ml) daily;
# Tongmai Jiangzhi tablet group (a positive drug for the treatment of hyperlipidemia): the mice were fed with high-fat feed and 0.6 g/kg Tongmai Jiangzhi tablets;
# Experimental data such as the body condition, food intake amount and the like of mice was recorded every week before and after the intervention of the model. After the completion of experiment, the mice were sacrificed, and the fat content was recorded, the serum was collected for detection of blood lipid contents (including total cholesterol (TC), triglyceride (TG), high-density lipoprotein (HDLC) and low-density lipoprotein (LDLC)) in the serum according to the instruction of kit. Blood from the last carotid artery was taken for hemorheological examination.
# [4] = system: T2D mice model (C57bL/6 mice); assay: T2D animal model, fasting blood glucose
# Procedure: as §1
# (§3) Bacterial agent group 1: the T2D mice model was administered with the AM25-6 bacterial solution (1×10^8 cfu/ml) by gavage;
# (§4) Bacterial agent group 2: the T2D mice model was administered with the DSM 17244 bacterial solution (1×10^8 cfu/ml) by gavage;
# (§5) Bacterial agent group 3: the T2D mice model was administered with the DSM 28733 bacterial solution (1×10^8 cfu/ml) by gavage;
# (§6) Metformin treatment group: the T2D mice model was treated with the positive drug metformin.
# as §2
# [5] = system: T2D mice model (C57bL/6 mice); assay: T2D animal model (STZ plus high-fat feed), body weight; conditions: gavage
# Procedure: as §1, §3, §4, §5, §6, §2
# [6] = system: SD rats, myocardial ischemia induced by pituitrin; assay: Experimental myocardial ischemia in rats induced by pituitrin, ST-segment displacement; conditions: gavage daily for 10 days, pituitrin 1 unit/kg iv., **P<0.01, *P<0.05 relative to model group
# Procedure: Fifty SD rats (purchased from Guangdong Medical Experimental Animal Center, half male and half female) at 180-220 g of body weight and 6 weeks old were used in this experiment, which were normally fed in a Specific pathogen Free (SPF) environment. The rats were adaptively fed for 1 week and then randomly divided into 5 groups, with 10 rats in each group.
# Model group: the rats were fed with 2.5 ml/kg PBS by gavage daily for 10 consecutive days; Bacterial agent group 1: the rats were fed with 2.5 ml/kg AM25-6 bacterial solution (1×10^9 cfu/ml) by gavage daily for 10 consecutive days;
# Bacterial agent group 2: the rats were fed with 2.5 ml/kg DSM 17244 bacterial solution (1×10^9 cfu/ml) by gavage daily for 10 consecutive days;
# Bacterial agent group 3: the rats were fed with 2.5 ml/kg DSM 28733 bacterial solution (1×10^9 cfu/ml) by gavage daily for 10 consecutive days;
# FuFangDanShen tablet group: the rats were fed with 2 g/kg FuFangDanShen tablet (SFDA approval number Z21020381, Tianjin Tasly (Liaoning) Pharmaceutical Co., Ltd.) by gavage daily for 10 consecutive days.
# For each group, the standard lead I electrocardiogram was recorded post 1 hour of last administration, followed by sublingual intravenous injection (iv.) with pituitrin (SFDA approval number H31022259, specifications: 2 ml: 6 units, from Shanghai First Biochemical & Pharmaceutical Industry Co., Ltd.) in 1 unit/kg (in a volume of 1 ml/kg) within 15 seconds, after which the change of electrocardiogram was recorded post 5 seconds, 15 seconds, 30 seconds, 1 minute, 2 minutes, 3 minutes and 5 minutes, and the change of ST segment displacement before and after administration of pituitrin was measured and compared, with statistical analysis by using t test between groups.
# [7] = Week 9, *P<0.05 relative to model group
Substance,"Weight of mice, Week 1 [1] [g]","Weight of mice, Week 3 [1] [g]","Weight of mice, Week 5 [1] [g]","Weight of mice, Week 7 [1] [g]","Weight of mice, Week 9 [1]","Blood glucose in OGTT, 0 minute [2] [mmol/L]","Blood glucose in OGTT, 30 minutes [2] [mmol/L]","Blood glucose in OGTT, 60 minutes [2] [mmol/L]","Blood glucose in OGTT, 90 minutes [2]","Blood glucose in OGTT, 120 minutes [2] [mmol/L]",blood viscosity [3],HDLC (high-density lipoprotein) [3] [mmol/L],LDLC (low-density lipoprotein) [3],TC (total cholesterol) [3],TG (triglyceride) [3],"Fasting blood glucose, Week 1 [4] [mmol/L]","Fasting blood glucose, Week 3 [4] [mmol/L]","Fasting blood glucose, Week 5 [4]","Fasting blood glucose, Week 7 [4]","Fasting blood glucose, Week 9 [4]",further results
Anaerofustis stercorihominis AM25-6 [Bacterial agent group 1],21.13,22.59,23.98,24.13,25.47* g,9.1,17.8,15.9,11.5* mmol/L,10.1,1.26*,3.219,1.454* mmol/L,4.014* mmol/L,0.893* mmol/L,16.1,15.6,13.2* mmol/L,10.4** mmol/L,8.6** mmol/L,"Body weight ([5]; Week 1): 22.34 g; Body weight ([5]; Week 3): 23.57 g; Body weight ([5]; Week 5): 24.26 g; Body weight ([5]; Week 7): 25.53 g; Body weight [5, 7]: 25.97* g; ST-segment displacement (±S) [6]: 0.017 ± 0.011** mv"
Anaerofustis stercorihominis DSM 17244 [Bacterial agent group 2],20.15,21.78,22.99,23.88,25.62* g,9.7,18.0,14.9,12.1* mmol/L,9.9,1.29*,3.219,1.585* mmol/L,4.021* mmol/L,0.933* mmol/L,15.8,15.7,14.6 mmol/L,11.7* mmol/L,9.0** mmol/L,"Body weight ([5]; Week 1): 21.55 g; Body weight ([5]; Week 3): 22.43 g; Body weight ([5]; Week 5): 23.78 g; Body weight ([5]; Week 7): 25.13 g; Body weight [5, 7]: 25.58* g; ST-segment displacement (±S) [6]: 0.018 ± 0.012** mv"
Anaerofustis stercorihominis DSM 28733 [Bacterial agent group 3],21.19,22.44,23.78,24.19,25.67* g,9.6,18.2,15.6,11.7* mmol/L,10.2,1.25*,3.311,1.423* mmol/L,4.017* mmol/L,0.912* mmol/L,16.7,15.5,13.6* mmol/L,10.4** mmol/L,7.8** mmol/L,"Body weight ([5]; Week 1): 21.76 g; Body weight ([5]; Week 3): 23.36 g; Body weight ([5]; Week 5): 24.57 g; Body weight ([5]; Week 7): 25.14 g; Body weight [5, 7]: 25.45* g; ST-segment displacement (±S) [6]: 0.020 ± 0.012** mv"
